For test [1], the system named is Pseudomonas aeruginosa ATCC® 27853™. Type of test: cell-based. The note with it: 180 minutes.
Test [2] relates to Acinetobacter baumannii ATCC® BAA-747™. In words: In vitro bactericidal assay (CFU remaining, log reduction). Type of test: cell-based. The note with it: for bactericidal activity against Acinetobacter baumannii / reduction of CFU/ml: 60 minutes; for bactericidal activity against Acinetobacter baumannii: peptides up to 25 μM, gentamicin 4 μg/ml; for reduction of CFU/ml: highest peptide concentrations (25 μM). How it is done: The three peptide compounds BCC01-5RMP (SEQ ID NO:21), BCC02-5RMP (SEQ ID NO:22), and BCC03-5RMP (SEQ ID NO:23) were assayed for in vitro bactericidal activity against Pseudomonas aeruginosa, Escherichia coli, Salmonella typhimurium, and Acinetobacter baumannii. The starting inoculum for all experiments was 1×10^6 colony forming units (CFU)/ml. The CFU remaining at the end of 60 to 180 minute incubation was determined, and the data plotted as a log reduction in CFU/ml.
For FIGS. 10-13, in vitro bactericidal assays were performed using a starting inoculum of 1×10^6 CFU/ml of the bacterial suspension. The CFU remaining at the end of the 60-180 minute incubation was determined, and the data was plotted as log reduction in CFU/ml.
In particular, each of the test peptides (CAP37 peptides 120-146WR, 120-146WH, and 95-122 (SEQ ID NOs: 30, 31, and 26, respectively)) was used at 25, 12.5, 6.25, and 3.12 μM. Gentamicin was used at 4 μg/ml. 1×10^6/ml Acinetobacter baumannii ATCC® BAA-747″ or Pseudomonas aeruginosa ATCC® 27853™ (American Type Culture Collection, Manassas, Va.) were incubated with the peptides, negative buffer control (tryptone saline), and positive control gentamicin at pH 5.5 or 7.2. A 60 minute incubation was used for Acinetobacter baumannii ATCC® BAA747™, while a 180 minute incubation was used for Pseudomonas aeruginosa ATCC® 27853™. 50 μl aliquots were plated out on agar plates and incubated overnight. Colony forming units were counted after overnight incubation and CFU/ml calculated.

Test [3] has as its system mouse cornea. In words: In vivo model of corneal wound healing (corneal epithelial abrasion). The method, then: The in vivo model of wound healing was carried out using a disposable biopsy punch (2 mm, Miltex, York, Pa.) to demarcate the mouse cornea and a 0.5 mm burr using the AlgerBrush II (The Alger Company, Inc., Lago Vista, Tex.) to remove the corneal epithelium. The corneal abrasions were treated at 0 and 16 hours with peptide 95-122 (10^−5 M), peptide 120-146WH (10^−6 M and 10^−8M), peptide 120-146WR ((10^−6 M and 10^−8M), or vehicle control (0.9% sodium chloride, pH 5.5, Baxter, Deerfield, Ill.). Corneal abrasions were visualized using sterile fluorescein sodium ophthalmic strips USP (Fluorets®, Chauvin Laboratory, Aubenas, France) dampened with sterile PBS. Images were taken at 0, 16, and 24 hours immediately following fluorescein staining.
Mice were anesthetized using ketamine (100 mg/kg; Bionichepharma, LLC., St. Lake Forrest, Ill.) and xylazine ([…]; Rompun; Bayer Corp., Shawnee Mission, Kans.), and the right cornea was wounded as follows. A disposable biopsy punch (2 mm, Miltex, York, Pa.) was used to demarcate the mouse cornea. The corneal epithelium was carefully removed within the 2 mm demarcated area with a 0.5 mm burr using the AlgerBrush II (The Alger Company, Inc., Lago Vista, Tex.). The corneal abrasions were treated at 0 and 16 hours with HB-EGF (250 ng/ml), rCAP37 (250 ng/ml), or vehicle control (0.9% sodium chloride, pH 5.5, Baxter, Deerfield, Ill.). Corneal abrasions were visualized using sterile fluorescein sodium ophthalmic strips USP (FLUORETS®, Chauvin Laboratory, Aubenas, France) dampened with sterile PBS. Images were taken at 0, 16, 24, and 48 hours immediately following fluorescein staining using a surgical microscope equipped with a camera (Carl Zeiss OPMI VISU 140, Carl Zeiss Surgical, Inc., Oberkochen, Germany). The areas of the open wound were quantitated using ImageJ software (US National Institutes of Health), and the results were reported as the percentage of wound closure.
Whole mouse eyes were collected for histology at 0, 6, 16, 24, and 48 hours post wounding and were immediately placed in Prefer fixative (Anatech LTD., Battle Creek, Mich.) for 20 minutes before being transferred to 70% ethanol. Tissues were paraffin-embedded and cut at a thickness of 5 μm, mounted on SUPERFROSTPLUS® slides (Statlab Medical Products, Lewisville, Tex.), and subsequently deparaffinized, rehydrated, and washed in deionized water. Sections were stained with hematoxylin (Leica Microsystems, Buffalo Grove, Ill.) and rinsed twice in deionized water before being washed in Blue Buffer (Leica Microsystems). The sections were finally washed in deionized water and 95% ethanol prior to being counterstained with eosin (Leica Microsystems). Sections were dehydrated in ethanol and cleared in xylene.

Read-outs that look alike come from different tables or passages of the source. Ends that are not written are not given here.

Take “LDREANLTSSVTILPLPLQNATVEAGTR (listed as Homo sapiens) [Peptide 95-122]”: the “bactericidal activity against Pseudomonas aeruginosa” value in test [1] (pH 5.5, peptides up to 25 μM) is given as “not active”; in test [1] (pH 7.2, peptides at 25 μM) it was “not active”. In addition, the “bactericidal activity against Acinetobacter baumannii” value in test [2] (pH 5.5) and in test [2] (pH 7.2) was “not active” throughout. Besides, the “corneal wound healing (wound closure at 16 and 24 hours) vs vehicle” value in test [3] (10^−5 M at 0 and 16 hours) was “promotes corneal wound healing”.

In the case of “GTRCQVAGWGSWHSGGRLSRFPRFVNV [Peptide 120-146WH]”, the “reduction of CFU (FIG. 14)” value in test [1] (pH 5.5, highest concentrations (150 μg/ml)) came to 6 logs. Further, the “reduction of CFU/ml” value in test [1] (pH 7.2, highest concentrations of peptides (25 μM)) was 6 logs; in test [2] (pH 5.5), around 4 logs; in test [2] (pH 7.2), around 5.5 logs. Further, the “bactericidal activity against Pseudomonas aeruginosa” value in test [1] (pH 7.2, peptides at 25 μM) is recorded as “as effective as the standard antibiotic gentamicin”. Further, the “activity against A. baumannii” value in test [2] (25 μM) is on record as “highly active”. The “amount of corneal wound healing vs vehicle-treated” value in test [3] (10^−8M or 10^−6M at 0 and 16 hours, closure at 16 and 24 hours) was “significantly greater”.

For the origin of these results see patent publication US9603896B2, “Peptide compounds and methods of production and use thereof” (priority 2012, dated 2017).
